Like-named read-outs stand apart in the source and are kept apart here.
Test system: polyarthritis
Assay: Rat adjuvant arthritis (Freund's adjuvant polyarthritis), global arthritic joint score
Format: in vivo, rats
Conditions: po, 384 h, read-out: ED50 (dose that produced a 50% reduction of the average global arthritic joint score relative to a control group)

Question: `CC(=O)Oc1ccccc1C(=O)O` [Aspirin] was tested. Which ED50 did it give?
Answer: 102 mg/kg

Question: Which ED50 (rats, in ground meal diet for 14 days from day of sensitization with Freund's adjuvant, evaluated on 16th day after sensitization) does the source give for `COc1ccc(OC)c(Cc2cnc3nc(N)nc(N)c3c2C)c1` [2,4-diamino-5-methyl-6-(2,5-dimethoxybenzyl)pyrido[2,3-d]pyrimidine isethionate] here?
Answer: 19 mg/kg
